Experimental data from patent US9090899B2, “Methods of diagnosing and treating prostate cancer characterized by NDRG1-ERG fusion” (CORNELL UNIVERSITY, priority 2009, dated 2015).

Legend:
Assay type in all cases: cell-based
NDRG1 mRNA = test: Hormone treatment of LNCaP cells, NDRG1 mRNA by TAQMAN quantitative RT-PCR; conditions: for Induction of NDRG1 mRNA: LNCaP cells, 12 hours, 10 nM 17β-estradiol or 10 nM DPN; for NDRG1 mRNA expression: serum-starved LNCaP cells, 1 nM R1881 or 10 nM E2, 3, 12 and 24 h, fold change against vehicle (Ethanol), normalized against TCFL1
Description: (§1) FIG. 6. Hormone treatment of LNCaP cells induced SLC45A3 and NDRG1 mRNA expression. SLC45A3 (A and C) or NDRG1 (B and D) mRNA expression was induced upon stimulation with synthetic androgen (R1881) and 17β-estradiol (E2). Serum-starved LNCaP cells were stimulated with 1 nM R1881, 1 nM R1881 in combination with 10 μM Flutamide (A and B), 10 nM E2 or 10 nM diarylpropionitrile (DPN) (C and D) for 3, 12 and 24 h. Samples were run in triplicate and normalized against TCFL1. Columns indicate the mean fold change of induction of three biological replicates against vehicle (Ethanol) only treated cells for the respective time points±SEM.
(§2) Hormone Treatment of LNCaP—The prostate cancer cell line LNCaP was obtained from ATCC (Manassas, Va.; cat.#CRL-1740) and maintained according to the suppliers instructions. For hormonal treatment, cells were plated (500,000 cells/10 cm^2) in the presence of complete growth medium supplemented with 1% Penicillin/Streptomycin. Cells were starved for 48 h in charcoal-stripped (CS) medium (RPMI-1640 1×, 5% charcoal-stripped […], 1% Penicillin/Streptomycin) and then treated with R1881 (1 nM), 17β-estradiol (10 nM), diarylpropionitrile (DPN, 10 nM) or ethanol vehicle for 3, 12, and 24 hours. RNA was extracted using the TRIzol Reagent (Invitrogen, Carlsbad, Calif.), subjected to DNase treatment (DNA-free™ Kit, Applied Biosystems) according to the manufacturer's instructions. To test for the specificity of androgen-stimulation, cells were treated with10 μM Flutamide for 2 hours and then treated with R1881 as described above. TAQMAN expression assays (Applied Biosystems) were used to quantify relative levels of SL45A3, NDRG1, PSA (KLK3) and IGF1R.

SLC45A3 mRNA = test: Hormone treatment of LNCaP cells, SLC45A3 mRNA by TAQMAN quantitative RT-PCR; conditions: for Induction of SLC45A3 mRNA: LNCaP cells, 3 hours, 10 nM 17β-estradiol or 10 nM DPN; for SLC45A3 mRNA expression: serum-starved LNCaP cells, 1 nM R1881 or 10 nM E2, 3, 12 and 24 h, fold change against vehicle (Ethanol), normalized against TCFL1
Description: as §1, §2

IGF2R mRNA = test: Hormone treatment of LNCaP cells, IGF2R mRNA by TAQMAN quantitative RT-PCR; conditions: serum-starved LNCaP cells; 1 nM R1881 or 10 nM E2; 3, 12 and 24 h; fold change against vehicle (Ethanol), normalized against TCFL1
Description: (§3) FIG. 7. Androgen and 17β-estradiol (E2) signaling of known target genes in LNCaP cells. IGF2R (A) and PSA (B) mRNA expression was induced upon stimulation with synthetic androgen (R1881) and E2. Serum-starved LNCaP cells were stimulated with 1 nM R1881, 1 nM R1881 in combination with 10 μM Flutamide, 10 nM E2 or 10 nM diarylpropionitrile (DPN) for 3, 12 and 24 h. Total RNA was extracted and used for quantitative RT-PCR using TAQMAN assay. Samples were run in triplicate and normalized against TCFL1. Columns indicate the mean fold change of induction of three biological replicates against vehicle (Ethanol) only treated cells for the respective time points±SEM.
as §2, with “RNA was extracted using the TRIzol Reagent (Invitrogen, Carlsbad, Calif.), subjected to DNase treatment (DNA-free™ Kit, Applied Biosystems) according to the manufacturer's instructions. To test for the specificity of androgen-stimulation, cells were treated with10 μM Flutamide for 2 hours and then treated with R1881 as described above.” left out

PSA (KLK3) mRNA = test: Hormone treatment of LNCaP cells, PSA mRNA by TAQMAN quantitative RT-PCR; conditions: serum-starved LNCaP cells; 1 nM R1881 or 10 nM E2; 3, 12 and 24 h; fold change against vehicle (Ethanol), normalized against TCFL1
Description: as §3
as §2, with “RNA was extracted using the TRIzol Reagent (Invitrogen, Carlsbad, Calif.), subjected to DNase treatment (DNA-free™ Kit, Applied Biosystems) according to the manufacturer's instructions. To test for the specificity of androgen-stimulation, cells were treated with10 μM Flutamide for 2 hours and then treated with R1881 as described above.” left out

SMILES | Induction of NDRG1 mRNA (NDRG1 mRNA) | Induction of SLC45A3 mRNA (SLC45A3 mRNA) | IGF2R mRNA expression (IGF2R mRNA) | PSA mRNA expression (PSA (KLK3) mRNA) | NDRG1 mRNA expression (NDRG1 mRNA) | SLC45A3 mRNA expression (SLC45A3 mRNA)
N#CC(Cc1ccc(O)cc1)c1ccc(O)cc1 (stereo not drawn) [DPN, diarylpropionitrile] | not | not | – | – | – | –
C[C@]1(O)CC[C@H]2[C@@H]3CCC4=CC(=O)CCC4=C3C=C[C@@]21C [R1881] | – | – | induced | induced | induced | induced
C[C@]12CC[C@@H]3c4ccc(O)cc4CC[C@H]3[C@@H]1CC[C@@H]2O [17β-estradiol] | observed | observed | induced | induced | induced | induced
